Assay results taken from ChEMBL document CHEMBL1125224, “Examination of HIV-1 protease secondary structure specificity using conformationally constrained inhibitors” (J Med Chem, 1991).

Biological target: Human immunodeficiency virus type 1 protease (Human immunodeficiency virus 1, UniProt Q72874)
Experiment: Concentration required to inhibit HIV-1 protease activity calculated from plots of % inhibition vs inhibitor concentration

Row | SMILES | IC50 [µM]
1 | CC[C@H](C)[C@H](NC(=O)C[C@H](O)[C@H](CC1CCCCC1)NC(=O)CC1C=CCN2C(=O)CCC(CNCc3ccccc3)C(=O)N12)C(=O)N[C@@H](Cc1ccccc1)C(=O)O (stereo not given in full) | 360
2 | CC[C@H](C)[C@H](NC(=O)C[C@H](O)[C@H](CC(C)C)NC(=O)CC1C=CCN2C(=O)CCC(CNCc3ccccc3)C(=O)N12)C(=O)N[C@@H](Cc1ccccc1)C(=O)OC (stereo not given in full) | 140
3 | CCC(C)[C@H](NC(=O)C[C@H](O)[C@H](Cc1ccccc1)NC(=O)CC1C=CCN2C(=O)CCC(CNCc3ccccc3)C(=O)N12)C(=O)N[C@@H](Cc1ccccc1)C(=O)OC (stereo not given in full) | 350
4 | CCC(C)[C@H](NC(=O)C[C@H](O)[C@H](CC1CCCCC1)NC(=O)CC1CCCN2C(=O)CCC(CN)C(=O)N12)C(=O)N[C@@H](Cc1ccccc1)C(N)=O (stereo not given in full) | 0.026
5 | CCC(C)[C@H](NC(=O)C[C@H](O)[C@H](CC(C)C)NC(=O)CC1C=CCN2C(=O)CCC(CNCc3ccccc3)C(=O)N12)C(=O)N[C@@H](Cc1ccccc1)C(N)=O (stereo not given in full) | 21
